Test in all cases: Bacterial growth minimal inhibitory concentration (CLSI broth microdilution)
What all share (format): cell-based

The subject of assay [1] is E. coli ATCC25922. The note with it: quinolone-sensitive strain, cation-adjusted Mueller-Hinton Broth; for MIC: Escherichia coli, ATCC25922. The protocol:
(§1) Minimal Inhibitory Concentrations (MICs; mg/L) were determined in cation-adjusted Mueller-Hinton Broth by a microdilution method following the description given in “Methods for Dilution Antimicrobial Susceptibility Tests for Bacteria that Grow Aerobically”, Approved standard, 7th ed., Clinical and Laboratory Standards Institute (CLSI) Document M7-A7, Wayne, Pa., USA (2006).
(§2) All Reference Example compounds were tested against several Gram-negative bacteria. K. pneumoniae A-651 is a multiply resistant strain (in particular quinolone-resistant), while E. coli ATCC25922 and P. aeruginosa ATCC27853 are quinolone-sensitive strains. The corresponding antibacterial test results are given in Table 1 hereafter (MICs in mg/L).

In assay [2] the test system is K. pneumoniae A-651. Conditions: multiply resistant strain (in particular quinolone-resistant), cation-adjusted Mueller-Hinton Broth; for MIC: Klebsiella pneumoniae, A651. The protocol:
as §1, §2

For assay [3], the system named is P. aeruginosa ATCC27853. The note with it: quinolone-sensitive strain, cation-adjusted Mueller-Hinton Broth; for MIC: Pseudomonas aeruginosa, ATCC27853. The protocol: as §1, §2

Converted amounts (≈) assume the structure as drawn.

`C[C@@](CCN1Cc2cc(C#CC#C[C@@H]3C[C@H]3CN3CCOCC3)cn2C1=O)(C(=O)NO)S(C)(=O)=O` [Example 29, (2R)—N-hydroxy-2-methyl-2-(methylsulfonyl)-4-(6-(((1R,2R)-2-(morpholinomethyl)cyclopropyl)buta-1,3-diyn-1-yl)-3-oxo-1H-pyrrolo[1,2-c]imidazol-2(3H)-yl)butanamide]: the MIC in assay [1] stood at 0.25 µg/mL (≈ 0.497 µM); in assay [2], 0.5 µg/mL (≈ 0.995 µM); in assay [3], 2 µg/mL (≈ 3.98 µM).

Turning to `CN1CC(C#CC#Cc2cc3n(c2)C(=O)N(CC[C@](C)(C(=O)NO)S(C)(=O)=O)C3)C1` [Example 30, (2R)—N-hydroxy-2-methyl-4-(6-((1-methylazetidin-3-yl)buta-1,3-diyn-1-yl)-3-oxo-1H-pyrrolo[1,2-c]imidazol-2(3H)-yl)-2-(methylsulfonyl)butanamide], the MIC in assay [1], in assay [2] and in assay [3] was 0.5 µg/mL (≈ 1.16 µM) each time.

Turning to `C[C@@](CCN1Cc2cc(C#CC#CC3CNC3)cn2C1=O)(C(=O)NOC1CCCCO1)S(C)(=O)=O` (stereo partly drawn) [Example 31, (2R)-4-(6-(azetidin-3-ylbuta-1,3-diyn-1-yl)-3-oxo-1H-pyrrolo[1,2-c]imidazol-2(3H)-yl)-2-methyl-2-(methylsulfonyl)-N-((tetrahydro-2H-pyran-2-yl)oxy)butanamide], the “MIC for E. coli ATCC25922” value in assay [1] stood at 8 µg/mL. In addition, the “MIC for K. Pneumoniae A-651” value in assay [2] amounted to 8 µg/mL. In assay [3], the “MIC for P. aeruginosa ATCC27853” value is 1 µg/mL.

For the molecule `CC(=O)N1CC(C#CC#Cc2cc3n(c2)C(=O)N(CC[C@](C)(C(=O)NO)S(C)(=O)=O)C3)C1` [Example 32, (2R)-4-(6-((1-acetylazetidin-3-yl)buta-1,3-diyn-1-yl)-3-oxo-1H-pyrrolo[1,2-c]imidazol-2(3H)-yl)-N-hydroxy-2-methyl-2-(methylsulfonyl)butanamide], the MIC was 1 µg/mL (≈ 2.17 µM) in assay [1], 2 µg/mL (≈ 4.34 µM) in assay [2] and 1 µg/mL (≈ 2.17 µM) in assay [3].

Regarding `CN1CC(F)(C#CC#Cc2cc3n(c2)C(=O)N(CC[C@](C)(C(=O)NO)S(C)(=O)=O)C3)C1` [Example 33, (2R)-4-(6-((3-fluoro-1-methylazetidin-3-yl)buta-1,3-diyn-1-yl)-3-oxo-1H-pyrrolo[1,2-c]imidazol-2(3H)-yl)-N-hydroxy-2-methyl-2-(methylsulfonyl)butanamide], the MIC was found to be 0.25 µg/mL (≈ 0.555 µM) in assay [1], 0.25 µg/mL (≈ 0.555 µM) in assay [2] and 2 µg/mL (≈ 4.44 µM) in assay [3].

In the case of `CN1CCC(C#CC#Cc2cc3n(c2)C(=O)N(CC[C@](C)(C(=O)NO)S(C)(=O)=O)C3)CC1` [Example 34, (2R)—N-hydroxy-2-methyl-4-(6-((1-methylpiperidin-4-yl)buta-1,3-diyn-1-yl)-3-oxo-1H-pyrrolo[1,2-c]imidazol-2(3H)-yl)-2-(methylsulfonyl)butanamide], the MIC in assay [1] is 4 µg/mL (≈ 8.69 µM); in assay [2] it was 4 µg/mL (≈ 8.69 µM); in assay [3], 1 µg/mL (≈ 2.17 µM).

As for `C[C@@](CCN1Cc2cc(C#CC#CC3CCN(C4COC4)CC3)cn2C1=O)(C(=O)NO)S(C)(=O)=O` [Example 35, (2R)—N-hydroxy-2-methyl-2-(methylsulfonyl)-4-(6-((1-(oxetan-3-yl)piperidin-4-yl)buta-1,3-diyn-1-yl)-3-oxo-1H-pyrrolo[1,2-c]imidazol-2(3H)-yl)butanamide], the MIC in assay [1] stood at 0.5 µg/mL (≈ 0.995 µM); in assay [2], 1 µg/mL (≈ 1.99 µM); in assay [3], 2 µg/mL (≈ 3.98 µM).

For `C[C@@](CCN1Cc2cc(C#Cc3ccc(CN4CC[C@H](O)C(F)(F)C4)cc3)cn2C1=O)(C(=O)NO)S(C)(=O)=O` [Example 37, (2R)-4-(6-((4-(((S)-3,3-difluoro-4-hydroxypiperidin-1-yl)methyl)phenyl)ethynyl)-3-oxo-1H-pyrrolo[1,2-c]imidazol-2(3H)-yl)-N-hydroxy-2-methyl-2-(methylsulfonyl)butanamide], the figures for the MIC in assay [1], in assay [2] and in assay [3] were 0.5 µg/mL (≈ 0.886 µM), 0.5 µg/mL (≈ 0.886 µM) and 2 µg/mL (≈ 3.54 µM), respectively.

By MIC is commonly meant the lowest concentration that inhibits growth of the organism. Read a high MIC as a need for much substance.
